# Experimental data as given in patent publication US20250074920A1, “MACROCYCLIC COMPOUNDS AND USE AS KINASE INHIBITORS” (BLOSSOMHILL THERAPEUTICS, INC., priority 2022, published 2025).
# What was measured:
# Experiment in all cases: KINOMEscan kinase binding assay
# EPHA2 = settings: at 1 μM
# How it was run: (§1)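 qPCR read-out of kinase retained on ligand-coated streptavidin beads. Binding buffer: 20% SeaBlock, 0.17×PBS, 0.05% Tween 20, 6 mM DTT; 1 h RT with shaking. % Ctrl = (test − positive control)/(negative control − positive control)×100; lower values mean stronger binding.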
# KIT(D816H) = settings: at 1 μM
# How it was run: (§2)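 Immobilized-ligand competition, qPCR-quantified. Kinase sources: T7 phage lysates from BL21-type E. coli, or HEK-293 expression plus DNA tag. Results expressed as % Ctrl (lower = stronger binding) and as Kd from capture versus concentration curves.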
# KIT(D816V) = settings: at 1 μM
# How it was run: as §2
# TNK2 = settings: at 1 μM
# How it was run: as §2
# [1] = system: ABL1(M351T)-phosphorylated; settings: at 1 μM
# How it was run: as §2
# PYK2 = settings: at 1 μM
# How it was run: as §2
# TRKA = settings: at 1 μM
# How it was run: as §2
# FYN = settings: at 1 μM
# How it was run: as §2
# INSR = settings: at 1 μM
# How it was run: as §2
# [2] = system: ABL1(E255K)-phosphorylated; settings: at 1 μM
# How it was run: as §2
# RET(V804L) = settings: at 1 μM
# How it was run: as §2
# RET(V804M) = settings: at 1 μM
# How it was run: as §2
# ALK(L1196M) = settings: at 1 μM
# How it was run: as §2
# EPHA5 = settings: at 1 μM
# How it was run: as §1
# [3] = system: JAK3(JH1domain-catalytic); settings: for % Ctrl: JAK3(JH1domain-catalytic), at 1 μM; for Kd: read-out: JAK3(JH1 domain-catalytic) Kd
# How it was run: as §1
# FAK = settings: at 1 μM
# How it was run: as §2
# EPHA3 = settings: at 1 μM
# How it was run: as §1
# [4] = system: ABL1(H396P)-phosphorylated; settings: at 1 μM
# How it was run: as §2
# KIT(V559D, T670I) = settings: at 1 μM
# How it was run: as §2
# KIT = settings: at 1 μM
# How it was run: as §2
# EPHB1 = settings: at 1 μM
# How it was run: as §2
# [5] = system: ABL1(T315I)-nonphosphorylated; settings: at 1 μM
# How it was run: as §2
# [6] = system: ABL1(F317I)-nonphosphorylated; settings: at 1 μM
# How it was run: as §2
# KIT(L576P) = settings: at 1 μM
# How it was run: as §2
# FLT3(D835H) = settings: at 1 μM
# How it was run: as §2
# FLT1 = settings: at 1 μM
# How it was run: as §2
# EPHB3 = settings: at 1 μM
# How it was run: as §2
# CSF1R = settings: at 1 μM
# How it was run: as §2
# PDGFRB = settings: at 1 μM
# How it was run: as §2
# ERBB3 = settings: at 1 μM
# How it was run: as §2
# PDGFRA = settings: at 1 μM
# How it was run: as §2
# KIT-autoinhibited = settings: at 1 μM
# How it was run: as §2
# RET = settings: at 1 μM
# How it was run: as §2
# TNK1 = settings: at 1 μM
# How it was run: as §2
# RET(M918T) = settings: at 1 μM
# How it was run: as §2
# KIT(V559D) = settings: at 1 μM
# How it was run: as §2
# ABL2 = settings: at 1 μM
# How it was run: as §2
# MUSK = settings: at 1 μM
# How it was run: as §2
# ZAP70 = settings: at 1 μM
# How it was run: as §2
# ALK = settings: at 1 μM
# How it was run: as §2
# CSK = settings: at 1 μM
# How it was run: as §2
smiles,measurement,setting,value
"Cc1cc2c([nH]1)/C=C1\C(=O)Nc3ccc(cc31)-c1c(nn(C)c1C)OCCCN(C)C2=O [Cpd. 1, [3a(4)Z]-6,9,15,16-tetramethyl-9,10,11,12-tetrahydro-15H-1,17-(ethanediylidene)pyrazolo[4,3-n]dipyrrolo[3,2-g:3′,4′-j][1,5]oxazacyclopentadecine-3,8(2H,5H)-dione]",% Ctrl,EPHA2,97%
same,% Ctrl,KIT(D816H),74%
same,% Ctrl,KIT(D816V),97%
same,% Ctrl,TNK2,100%
same,% Ctrl,[1],100%
same,% Ctrl,PYK2,100%
same,% Ctrl,TRKA,67%
same,% Ctrl,FYN,91%
same,% Ctrl,INSR,95%
same,% Ctrl,[2],92%
same,% Ctrl,RET(V804L),82%
same,% Ctrl,RET(V804M),100%
same,% Ctrl,ALK(L1196M),89%
same,% Ctrl,EPHA5,93%
same,% Ctrl,[3],81%
same,Kd,[3],> 10000 nM
same,% Ctrl,FAK,85%
same,% Ctrl,EPHA3,86%
same,% Ctrl,[4],96%
same,% Ctrl,"KIT(V559D, T670I)",93%
same,% Ctrl,KIT,91%
same,% Ctrl,EPHB1,87%
same,% Ctrl,[5],83%
same,% Ctrl,[6],91%
same,% Ctrl,KIT(L576P),88%
same,% Ctrl,FLT3(D835H),96%
same,% Ctrl,FLT1,97%
same,% Ctrl,EPHB3,99%
same,% Ctrl,CSF1R,98%
same,% Ctrl,PDGFRB,100%
same,% Ctrl,ERBB3,100%
same,% Ctrl,PDGFRA,87%
same,% Ctrl,KIT-autoinhibited,81%
same,% Ctrl,RET,94%
same,% Ctrl,TNK1,100%
same,% Ctrl,RET(M918T),84%
same,% Ctrl,KIT(V559D),91%
same,% Ctrl,ABL2,87%
same,% Ctrl,MUSK,93%
same,% Ctrl,ZAP70,94%
same,% Ctrl,ALK,87%
same,% Ctrl,CSK,97%
"Cc1cc2c([nH]1)/C=C1\C(=O)Nc3ccc(cc31)-c1c(nn(C)c1C)COCCN(C)C2=O [Cpd. 2, [3a(4)Z]-6,9,15,16-tetramethyl-10,11,13,15-tetrahydro-2H-1,17-(ethanediylidene)pyrazolo[4,3-m]dipyrrolo[3,2-f:3′,4′-i][1,4]oxazacyclopentadecine-3,8(5H,9H)-dione]",% Ctrl,EPHA2,85%
same,% Ctrl,KIT(D816H),98%
same,% Ctrl,KIT(D816V),60%
same,% Ctrl,TNK2,89%
same,% Ctrl,[1],57%
same,% Ctrl,PYK2,100%
same,% Ctrl,TRKA,20%
same,% Ctrl,FYN,100%
same,% Ctrl,INSR,100%
same,% Ctrl,[2],45%
same,% Ctrl,RET(V804L),80%
same,% Ctrl,RET(V804M),77%
same,% Ctrl,ALK(L1196M),94%
same,% Ctrl,EPHA5,99%
same,% Ctrl,[3],49%
same,Kd,[3],510 nM
same,% Ctrl,FAK,96%
same,% Ctrl,EPHA3,99%
same,% Ctrl,[4],64%
same,% Ctrl,"KIT(V559D, T670I)",82%
same,% Ctrl,KIT,100%
same,% Ctrl,EPHB1,99%
same,% Ctrl,[5],17%
same,% Ctrl,[6],100%
same,% Ctrl,KIT(L576P),100%
same,% Ctrl,FLT3(D835H),31%
same,% Ctrl,FLT1,79%
same,% Ctrl,EPHB3,100%
same,% Ctrl,CSF1R,82%
same,% Ctrl,PDGFRB,79%
same,% Ctrl,ERBB3,100%
same,% Ctrl,PDGFRA,73%
same,% Ctrl,KIT-autoinhibited,100%
same,% Ctrl,RET,90%
same,% Ctrl,TNK1,92%
same,% Ctrl,RET(M918T),92%
same,% Ctrl,KIT(V559D),98%
same,% Ctrl,ABL2,96%
same,% Ctrl,MUSK,100%
same,% Ctrl,ZAP70,96%
same,% Ctrl,ALK,100%
same,% Ctrl,CSK,100%
"Cc1cc2c([nH]1)/C=C1\C(=O)Nc3c(Cl)cc(cc31)-c1cn(C)nc1COC[C@@H](C)NC2=O [Cpd. 3, [3a(4)Z,10R]-20-chloro-6,10,15-trimethyl-10,11,13,15-tetrahydro-2H-1,17-(ethanediylidene)pyrazolo[4,3-m]dipyrrolo[3,2-f:3′,4′-i][1,4]oxazacyclopentadecine-3,8(5H,9H)-dione]",% Ctrl,EPHA2,93%
same,% Ctrl,KIT(D816H),94%
same,% Ctrl,KIT(D816V),97%
same,% Ctrl,TNK2,97%
same,% Ctrl,[1],99%
same,% Ctrl,PYK2,94%
same,% Ctrl,TRKA,61%
same,% Ctrl,FYN,100%
same,% Ctrl,INSR,78%
same,% Ctrl,[2],100%
same,% Ctrl,RET(V804L),98%
same,% Ctrl,RET(V804M),100%
same,% Ctrl,ALK(L1196M),94%
same,% Ctrl,EPHA5,100%
same,% Ctrl,[3],70%
same,Kd,[3],7700 nM
same,% Ctrl,FAK,100%
same,% Ctrl,EPHA3,75%
same,% Ctrl,[4],100%
same,% Ctrl,"KIT(V559D, T670I)",100%
same,% Ctrl,KIT,100%
same,% Ctrl,EPHB1,100%
same,% Ctrl,[5],100%
same,% Ctrl,[6],100%
same,% Ctrl,KIT(L576P),100%
same,% Ctrl,FLT3(D835H),100%
same,% Ctrl,FLT1,92%
same,% Ctrl,EPHB3,93%
same,% Ctrl,CSF1R,100%
same,% Ctrl,PDGFRB,100%
same,% Ctrl,ERBB3,74%
same,% Ctrl,PDGFRA,92%
same,% Ctrl,KIT-autoinhibited,87%
same,% Ctrl,RET,96%
same,% Ctrl,TNK1,94%
same,% Ctrl,RET(M918T),100%
same,% Ctrl,KIT(V559D),100%
same,% Ctrl,ABL2,97%
same,% Ctrl,MUSK,98%
same,% Ctrl,ZAP70,55%
same,% Ctrl,ALK,100%
same,% Ctrl,CSK,94%
"C[C@@H]1COCc2nn(C)cc2-c2cc(Cl)c3c(c2)/C(=C/c2[nH]ccc2C(=O)N1)C(=O)N3 [Cpd. 4, [3a(4)Z,10R]-20-chloro-10,15-dimethyl-10,11,13,15-tetrahydro-2H-1,17-(ethanediylidene)pyrazolo[4,3-m]dipyrrolo[3,2-f:3′,4′-i][1,4]oxazacyclopentadecine-3,8(5H,9H)-dione]",% Ctrl,EPHA2,96%
same,% Ctrl,KIT(D816H),80%
same,% Ctrl,KIT(D816V),100%
same,% Ctrl,TNK2,100%
same,% Ctrl,[1],94%
same,% Ctrl,PYK2,92%
same,% Ctrl,TRKA,59%
same,% Ctrl,FYN,93%
same,% Ctrl,INSR,81%
same,% Ctrl,[2],94%
same,% Ctrl,RET(V804L),95%
same,% Ctrl,RET(V804M),90%
same,% Ctrl,ALK(L1196M),94%
same,% Ctrl,EPHA5,100%
same,% Ctrl,[3],12%
same,Kd,[3],59 nM
same,% Ctrl,FAK,96%
same,% Ctrl,EPHA3,83%
same,% Ctrl,[4],96%
same,% Ctrl,"KIT(V559D, T670I)",94%
same,% Ctrl,KIT,100%
same,% Ctrl,EPHB1,97%
same,% Ctrl,[5],100%
same,% Ctrl,[6],95%
same,% Ctrl,KIT(L576P),100%
same,% Ctrl,FLT3(D835H),65%
same,% Ctrl,FLT1,92%
same,% Ctrl,EPHB3,93%
same,% Ctrl,CSF1R,92%
same,% Ctrl,PDGFRB,100%
same,% Ctrl,ERBB3,76%
same,% Ctrl,PDGFRA,96%
same,% Ctrl,KIT-autoinhibited,82%
same,% Ctrl,RET,100%
same,% Ctrl,TNK1,94%
same,% Ctrl,RET(M918T),98%
same,% Ctrl,KIT(V559D),100%
same,% Ctrl,ABL2,97%
same,% Ctrl,MUSK,98%
same,% Ctrl,ZAP70,56%
same,% Ctrl,ALK,100%
same,% Ctrl,CSK,100%
